{"source": "patent US7728146B2", "about": "“Enzyme inhibitors” (Probiodrug AG, priority 2006, dated 2010)", "biological_target": "DP IV (Homo sapiens, UniProt P27487)", "experiment": "DP IV inhibition IC50, parallel-synthesis compounds tested directly following synthesis (without purification)", "assay_type": "biochemical", "parameters": "IC50 DP4; other: tested directly following parallel synthesis, without purification; compounds of formula (Ib) from parallel synthesis, tested directly following synthesis", "protocol": "Compounds were immediately tested regarding their activity as DP IV inhibitors.\nSubstances are screened for inhibition of dipeptidyl peptidase (DP IV) by their ability to inhibit the hydrolysis of the DP IV specific substrate Glycyl-Prolyl-4-Nitroanilide (Gly-Pro-pNA). All compounds are diluted in DMSO and IC50 will be determined with 11 serial dilutions (1:2) starting with an final concentration of 100 μM. The final DMSO concentration in the assay is 5% (v/v). The method was automated using a Tecan Genesis Freedom liquid handler and a Genius Pro (Tecan) microplate reader.\nDP IV from porcine kidney (pDP IV) or recombinant human DP IV (rhDP IV) is diluted in HEPES buffer to a final activity of approximately 40-50 μU*ml^−1. The DP IV is stored in a cooling rack (4° C.) on the liquid handler.\nThe assay may becarried out at room temperature using Freedom liquid handler connected with a Genios Pro microplate reader. Each sample is measured in duplicate. Each sample stock solution is prediluted with DMSO in a ratio of 1:5 in a polypropylen 96-well plate. From this predilution 10 serial (1:2) dilutions in DMSO are prepared. 13.5 μl of the 11 DMSO dilutions and DMSO alone are transferred to the measurement microplate (duplicates) and 86.5 μl water, 100 μl HEPES buffer and 50 μl substrate solution are added to each well. The enzymatic reaction is started by addition of 20 μl enzyme solution to each well, and then the microplate is immediately transferred to the microplate reader.\nAfter short mixing (20 s) the release of 4-Nitroanilin (pNA) is monitored at 405 nm for 30 cycles (approx. 18 min).\nPost assay calculations are done by the Magellan (Tecan) and Graphit Software. The linear slopes are calculated for each well and averaged for the duplicates. The residue activities are calculated in relation to a sample containing only solvent instead of inhibitor and expressed in %. Residue activities are plotted against the log of inhibitor concentrations and IC50 is calculated by an 4-parameter fitting ranging from 0 to 100%.", "key": {"[1]": {"conditions": "DP IV inhibition, compounds of formula (Ib) from parallel synthesis, tested directly following synthesis (without purification), read-out: IC50"}, "[2]": {"conditions": "tested directly following parallel synthesis, without purification, read-out: IC50 DP4"}}, "note": "Read-outs that look alike come from different tables or passages of the source.", "data": [{"smiles": "NCc1c(-c2ccc(Cl)cc2Cl)ncn1CCCCc1ccccc1", "note": "[42b, C-[5-(2,4-Dichloro-phenyl)-3-(4-phenyl-butyl)-3H-imidazol-4-yl]-methylamine]", "values": [{"measurement": "IC50", "setting": "[1]", "value": 7.3, "unit": "µM"}]}, {"smiles": "CC(N)c1c(-c2ccc(Cl)cc2Cl)ncn1CCCCc1ccccc1", "note": "(centres unmarked) [106b, 1-[5-(2,4-Dichloro-phenyl)-3-(4-phenyl-butyl)-3H-imidazol-4-yl]-ethylamine]", "values": [{"measurement": "IC50", "setting": "[1]", "value": 28, "unit": "µM"}]}, {"smiles": "CCOc1ccccc1Cn1cnc(-c2ccc(F)cc2Cl)c1CN", "note": "[Example 18a, C-[5-(2-Chloro-4-fluoro-phenyl)-3-(2-ethoxy-benzyl)-3H-imidazol-4-yl]-methylamine]", "values": [{"measurement": "IC50", "setting": "[2]", "value": 6.4, "unit": "µM"}]}, {"smiles": "NCCCc1c(-c2ccc(Cl)cc2Cl)ncn1Cc1cc(Br)ccc1F", "note": "[30b, 3-[3-(5-Bromo-2-fluoro-benzyl)-5-(2,4-dichloro-phenyl)-3H-imidazol-4-yl]-propylamine]", "values": [{"measurement": "IC50", "setting": "[1]", "value": 17.2, "unit": "µM"}]}, {"smiles": "CCOc1ccccc1Cn1cnc(-c2ccc(Cl)cc2Cl)c1CN", "note": "[Example 50a, C-[5-(2,4-Dichloro-phenyl)-3-(2-ethoxy-benzyl)-3H-imid-azol-4-yl]-methyl-amine]", "values": [{"measurement": "IC50", "setting": "[2]", "value": 0.1, "unit": "µM"}]}, {"smiles": "NCc1c(-c2ccc(Cl)cc2Cl)ncn1Cc1cc(F)ccc1F", "note": "[119b, C-[5-(2,4-Dichloro-phenyl)-3-(2,5-difluoro-benzyl)-3H-imidazol-4-yl]-methylamine]", "values": [{"measurement": "IC50", "setting": "[1]", "value": 2.8, "unit": "µM"}]}, {"smiles": "NCc1c(-c2ccc(Cl)cc2Cl)ncn1Cc1ccc(F)cc1Cl", "note": "[Example 63a, C-[3-(2-Chloro-4-fluoro-benzyl)-5-(2,4-di-chloro-phenyl)-3H-imid-azol-4-yl]-methyl-amine]", "values": [{"measurement": "IC50", "setting": "[2]", "value": 1.9, "unit": "µM"}]}, {"smiles": "NCCCc1c(-c2ccc(Cl)cc2Cl)ncn1CCc1c[nH]c2cc(Cl)ccc12", "note": "[105b, 3-[3-[2-(6-Chloro-1H-indol-3-yl)-ethyl]-5-(2,4-dichloro-phenyl)-3H-imidazol-4-yl]-propylamine]", "values": [{"measurement": "IC50", "setting": "[1]", "value": 37.9, "unit": "µM"}]}, {"smiles": "NCc1c(-c2ccc(F)cc2Cl)ncn1Cc1cc(F)ccc1F", "note": "[Example 27a, C-[5-(2-Chloro-4-fluoro-phenyl)-3-(2,5-difluoro-benzyl)-3H-imid-azol-4-yl]-methyl-amine]", "values": [{"measurement": "IC50", "setting": "[2]", "value": 22.6, "unit": "µM"}]}, {"smiles": "NCc1c(-c2ccc(F)cc2Cl)ncn1Cc1cccc(C(F)(F)F)c1", "note": "[Example 6a, C-[5-(2-Chloro-4-fluoro-phenyl)-3-(3-tri-fluoromethyl-benzyl)-3H-imid-azol-4-yl]-methyl-amine]", "values": [{"measurement": "IC50", "setting": "[2]", "value": 17.2, "unit": "µM"}]}, {"smiles": "NCc1c(-c2ccc(F)cc2Cl)ncn1Cc1ccc(F)c(F)c1", "note": "[Example 17a, C-[5-(2-Chloro-4-fluoro-phenyl)-3-(3,4-difluoro-benzyl)-3H-imid-azol-4-yl]-methyl-amine]", "values": [{"measurement": "IC50", "setting": "[2]", "value": 19, "unit": "µM"}]}, {"smiles": "COc1ccc(Cn2cnc(-c3ccc(Cl)cc3Cl)c2[C@H](C)N)c(OC)c1", "note": "[62b, (S)-1-[5-(2,4-Dichloro-phenyl)-3-(2,4-dimethoxy-benzyl)-3H-imidazol-4-yl]-ethylamine]", "values": [{"measurement": "IC50", "setting": "[1]", "value": 10, "unit": "µM"}]}, {"smiles": "NCc1c(-c2ccc(Cl)cc2Cl)ncn1Cc1ccc(Cl)cc1", "note": "[Example 54a, C-[3-(4-Chloro-benzyl)-5-(2,4-dichloro-phenyl)-3H-imid-azol-4-yl]-methyl-amine]", "values": [{"measurement": "IC50", "setting": "[2]", "value": 1.9, "unit": "µM"}]}, {"smiles": "Cc1ccccc1Cn1cnc(-c2ccc(F)cc2Cl)c1CN", "note": "[Example 14a, C-[5-(2-Chloro-4-fluoro-phenyl)-3-(2-methyl-benzyl)-3H-imid-azol-4-yl]-methyl-amine]", "values": [{"measurement": "IC50", "setting": "[2]", "value": 19.9, "unit": "µM"}]}, {"smiles": "NCc1c(-c2ccc(F)cc2Cl)ncn1Cc1c(Cl)cccc1Cl", "note": "[Example 26a, C-[5-(2-Chloro-4-fluoro-phenyl)-3-(2,6-di-chloro-benzyl)-3H-imid-azol-4-yl]-methyl-amine]", "values": [{"measurement": "IC50", "setting": "[2]", "value": 39.7, "unit": "µM"}]}, {"smiles": "NCc1c(-c2ccc(Cl)cc2Cl)ncn1Cc1cc(F)ccc1F", "note": "[Example 61a, C-[5-(2,4-Dichloro-phenyl)-3-(2,5-difluoro-benzyl)-3H-imid-azol-4-yl]-methyl-amine]", "values": [{"measurement": "IC50", "setting": "[2]", "value": 1.9, "unit": "µM"}]}, {"smiles": "CC(N)c1c(-c2ccc(Cl)cc2Cl)ncn1CCc1ccccc1Cl", "note": "(centres unmarked) [63b, 1-[3-[2-(2-Chloro-phenyl)-ethyl]-5-(2,4-dichloro-phenyl)-3H-imidazol-4-yl]-ethylamine]", "values": [{"measurement": "IC50", "setting": "[1]", "value": 19, "unit": "µM"}]}, {"smiles": "COc1ccc(Cn2cnc(-c3ccc(Cl)cc3Cl)c2CN)cc1OC", "note": "[5b, C-[5-(2,4-Dichloro-phenyl)-3-(3,4-dimethoxy-benzyl)-3H-imidazol-4-yl]-methylamine]", "values": [{"measurement": "IC50", "setting": "[1]", "value": 19.9, "unit": "µM"}]}, {"smiles": "NCc1c(-c2ccc(Cl)cc2Cl)ncn1Cc1cccc(F)c1", "note": "[Example 28b, C-[5-(2,4-dichloro-phenyl)-3-(3-fluoro-benzyl)-3H-imidazol-4-yl]-methylamine]", "values": [{"measurement": "IC50", "setting": "[1]", "value": 1.9, "unit": "µM"}]}, {"smiles": "NCc1c(-c2ccc(F)cc2Cl)ncn1Cc1ccc(F)cc1Cl", "note": "[Example 29a, C-[3-(2-Chloro-4-fluoro-benzyl)-5-(2-chlo-ro-4-fluoro-phenyl)-3H-imid-azol-4-yl]-methyl-amine]", "values": [{"measurement": "IC50", "setting": "[2]", "value": 31.6, "unit": "µM"}]}, {"smiles": "NCc1c(-c2ccc(Cl)cc2Cl)ncn1Cc1ccc(Br)cc1", "note": "[25b, C-[3-(4-Bromo-benzyl)-5-(2,4-dichloro-phenyl)-3H-imidazol-4-yl]-methylamine]", "values": [{"measurement": "IC50", "setting": "[1]", "value": 6.4, "unit": "µM"}]}, {"smiles": "NCc1c(-c2ccc(F)cc2Cl)ncn1Cc1ccc(F)cc1F", "note": "[Example 7a, C-[5-(2-Chloro-4-fluoro-phenyl)-3-(2,4-difluoro-benzyl)-3H-imid-azol-4-yl]-methyl-amine]", "values": [{"measurement": "IC50", "setting": "[2]", "value": 27.1, "unit": "µM"}]}, {"smiles": "NCc1c(-c2ccc(Cl)cc2Cl)ncn1Cc1ccccc1OC(F)(F)F", "note": "[Example 55a, C-[5-(2,4-Dichloro-phenyl)-3-(2-tri-fluorometh-oxy-benzyl)-3H-imid-azol-4-yl]-methyl-amine]", "values": [{"measurement": "IC50", "setting": "[2]", "value": 0.1, "unit": "µM"}]}, {"smiles": "NCc1c(-c2ccc(Cl)cc2Cl)ncn1CCc1c[nH]c2cc(F)ccc12", "note": "[114b, C-{5-(2,4-Dichloro-phenyl)-3-[2-(6-fluoro-1H-indol-3-yl)-ethyl]-3H-imidazol-4-yl}-methylamine]", "values": [{"measurement": "IC50", "setting": "[1]", "value": 3.7, "unit": "µM"}]}, {"smiles": "Cn1cccc1Cn1cnc(-c2ccc(Cl)cc2Cl)c1CN", "note": "[Example 64a, C-[5-(2,4-Dichloro-phenyl)-3-(1-methyl-1H-pyrrol-2-yl-methyl)-3H-imid-azol-4-yl]-methyl-amine]", "values": [{"measurement": "IC50", "setting": "[2]", "value": 27.1, "unit": "µM"}]}, {"smiles": "NCc1c(-c2ccc(Cl)cc2Cl)ncn1Cc1cccc(Cl)c1Cl", "note": "[Example 52a, C-[3-(2,3-Dichloro-benzyl)-5-(2,4-dichloro-phenyl)-3H-imid-azol-4-yl]-methyl-amine]", "values": [{"measurement": "IC50", "setting": "[2]", "value": 2.8, "unit": "µM"}]}, {"smiles": "NCc1c(-c2ccc(Cl)cc2Cl)ncn1Cc1cccc(Cl)c1Cl", "note": "[46b, C-[3-(2,3-Dichloro-benzyl)-5-(2,4-dichloro-phenyl)-3H-imidazol-4-yl]-methylamine]", "values": [{"measurement": "IC50", "setting": "[1]", "value": 2.8, "unit": "µM"}]}, {"smiles": "NCc1c(-c2ccc(Cl)cc2Cl)ncn1CCc1ccc(O)cc1", "note": "[113b, 4-{2-[5-Aminomethyl-4-(2,4-dichloro-phenyl)-imidazol-1-yl]-ethyl}-phenol]", "values": [{"measurement": "IC50", "setting": "[1]", "value": 21.7, "unit": "µM"}]}, {"smiles": "NCc1c(-c2ccc(F)cc2Cl)ncn1Cc1ccccc1F", "note": "[Example 28a, C-[5-(2-Chloro-4-fluoro-phenyl)-3-(2-fluoro-benzyl)-3H-imid-azol-4-yl]-methyl-amine]", "values": [{"measurement": "IC50", "setting": "[2]", "value": 19, "unit": "µM"}]}, {"smiles": "C[C@H](N)c1c(-c2ccc(Cl)cc2Cl)ncn1CCc1c[nH]c2ccccc12", "note": "[103b, (S)-1-{5-(2,4-Dichloro-phenyl)-3-[2-(1H-indol-3-yl)-ethyl]-3H-imidazol-4-yl}-ethylamine]", "values": [{"measurement": "IC50", "setting": "[1]", "value": 44.2, "unit": "µM"}]}, {"smiles": "C[C@H](N)c1c(-c2ccc(Cl)cc2Cl)ncn1CCc1c[nH]c2cc(F)ccc12", "note": "[110b, (S)-1-{5-(2,4-Dichloro-phenyl)-3-[2-(6-fluoro-1H-indol-3-yl)-ethyl]-3H-imidazol-4-yl}-ethylamine]", "values": [{"measurement": "IC50", "setting": "[1]", "value": 42.4, "unit": "µM"}]}, {"smiles": "NCc1c(-c2ccc(Cl)cc2Cl)ncn1Cc1ccc(-c2ccccc2)cc1", "note": "[75b, C-[3-Biphenyl-4-ylmethyl-5-(2,4-dichloro-phenyl)-3H-imidazol-4-yl]-methylamine]", "values": [{"measurement": "IC50", "setting": "[1]", "value": 23.5, "unit": "µM"}]}]}
